# Values of other authors as cited in US20060235222A1, “Indole-derivative modulators of steroid hormone nuclear receptors” (ELI LILLY AND COMPANY, priority 2003, published 2006).
# Tested on: patients suffering from advanced CHF
# Settings: in combination with standard CHF therapy; cited from earlier work
smiles,measurement,value
CC(=O)S[C@@H]1CC2=CC(=O)CC[C@]2(C)[C@H]2CC[C@@]3(C)[C@@H](CC[C@@]34CCC(=O)O4)[C@H]12 [spironolactone],reduced cardiac related mortality,30%
same,reduced frequency of hospitalization,35%
